Assay results reported in US11919893B1, “7-(4-((5-(2-bromobenzylideneamino)-2-thioxo-1,3,4-thiadiazol-3(2H)-yl)methyl) piperazin-1-yl)-1-cyclopropyl-6-fluoro-4-oxo-1,4-dihydroquinoline-3-carboxylic acid as an anti-inflammatory compound” (KING FAISAL UNIVERSITY, priority 2023, dated 2024).

Molecular target: Bovine serum albumin (Bos taurus, UniProt P02769)
Assay: Bovine serum albumin (BSA) protein denaturation assay, in vitro anti-inflammatory activity
Format: biochemical
Description: Bovine Serum Albumin Assay (BSA) In vitro-inflammatory activities of the tested samples were determined using a modified method of the BSA assay reported by Williams et al. BSA solution (0.4%, w/v) was prepared in Tris Buffered Saline. The pH was adjusted to 6.4 with glacial acetic acid. Different dilutions of 20, 40, 60, 80, and 100 μg/mL of 7-(4-((5-(2-bromobenzylideneamino)-2-thioxo-1,3,4-thiadiazol-3(2H)-yl)methyl)piperazin-1-yl)-1-cyclopropyl-6-fluoro-4-oxo-1,4-dihydroquinoline-3-carboxylic acid (IV) the stock solutions were added to test tubes containing 1 mL of 0.4%, w/v BSA buffer solution. Both negative (solvent) and positive (aspirin) controls were assayed in a similar manner. The solutions were then heated in a water bath at 72° C. for 10 minutes and cooled for 20 minutes under laboratory conditions. The turbidity of the solutions (level of protein precipitation) was measured at 660 nm in Spectrophotometer (V-770 UV-Visible/NIR Spectrophotometer). The percentage inhibition of precipitation (protein denaturation) was determined relative to the negative control using the following equation: [formula] % Anti-Denaturation Activity=% Inhibition of Protein Denaturation=% Anti-inflammatory Activity

[1] = read-out: % Inhibition of protein denaturation (Bovine serum albumin)

Sequence of Bovine serum albumin (P02769 25-607): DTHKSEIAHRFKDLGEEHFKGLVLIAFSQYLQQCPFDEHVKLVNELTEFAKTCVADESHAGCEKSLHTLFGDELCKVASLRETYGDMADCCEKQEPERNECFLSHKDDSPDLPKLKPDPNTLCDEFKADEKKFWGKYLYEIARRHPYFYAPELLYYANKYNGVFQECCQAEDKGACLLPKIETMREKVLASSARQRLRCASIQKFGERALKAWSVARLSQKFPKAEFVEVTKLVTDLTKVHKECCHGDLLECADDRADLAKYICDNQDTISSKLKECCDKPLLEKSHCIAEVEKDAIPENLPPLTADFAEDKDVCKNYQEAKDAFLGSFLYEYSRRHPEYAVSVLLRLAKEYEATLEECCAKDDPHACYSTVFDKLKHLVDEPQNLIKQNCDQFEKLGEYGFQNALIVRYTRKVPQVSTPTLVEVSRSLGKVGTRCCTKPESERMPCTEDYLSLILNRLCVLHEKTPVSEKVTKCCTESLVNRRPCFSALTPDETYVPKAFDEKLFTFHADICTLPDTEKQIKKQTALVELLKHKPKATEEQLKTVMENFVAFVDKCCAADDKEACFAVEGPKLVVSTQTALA

in vitro anti-inflammatory activity (in words) (BSA denaturation assay): considerable anti-inflammatory effect
inhibition at 20 µg/mL [1]: 62.6%
inhibition at 40 µg/mL [1]: 73.1%
inhibition at 60 µg/mL [1]: 75.2%
inhibition at 80 µg/mL [1]: 82%
inhibition at 100 µg/mL [1]: 84.8%
SMILES: O=C(O)c1cn(C2CC2)c2cc(N3CCN(Cn4nc(N=Cc5ccccc5Br)sc4=S)CC3)c(F)cc2c1=O [IV, 7-(4-((5-(2-bromobenzylideneamino)-2-thioxo-1,3,4-thiadiazol-3(2H)-yl)methyl)piperazin-1-yl)-1-cyclopropyl-6-fluoro-4-oxo-1,4-dihydroquinoline-3-carboxylic acid]
